# Test results published in patent US6737383B1, “Herbicidal oxadiazolidines” (priority 1999, dated 2004).
# What was measured:
# velvetleaf = assay: Test B pre/postemergence velvetleaf; format: in vivo, Abutilon theophrasti
# In short: (§1)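 Response is a visual 0-to-10 score relative to untreated plants, where 0 means no effect and 10 means complete control, taken twelve to sixteen days after application. Treatments went onto soil at planting and onto foliage of 1- to 4-leaf plants, using a surfactant-containing non-phytotoxic solvent.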
# purple nutsedge = assay: Test B pre/postemergence purple nutsedge; format: in vivo, Cyperus rotundus
# In short: as §1
# smallflower flatsedge = assay: Test B flood test smallflower flatsedge; format: in vivo, Cyperus difformis
# In short: (§2)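 Flood test on plants grown to the 2-leaf stage; treated plants kept in greenhouse twelve to sixteen days, then visually rated against controls on a 0 (no effect) to 10 (complete control) scale.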
# soybean = assay: Test B pre/postemergence soybean; format: in vivo, Glycine max
# In short: as §1
# corn = assay: Test B pre/postemergence corn; format: in vivo, Zea mays
# In short: as §1
# giant foxtail = assay: Test B pre/postemergence giant foxtail; format: in vivo, Setaria faberii
# In short: as §1
# cocklebur = assay: Test B pre/postemergence cocklebur; format: in vivo, Xanthium strumarium
# In short: as §1
# bamyardgrass = assay: Test B flood test barnyardgrass; format: in vivo, Echinochloa crus-galli
# In short: as §2
# blackgrass = assay: Test B pre/postemergence blackgrass; format: in vivo, Alopecurus myosuroides
# In short: as §1
# pigweed = assay: Test B pre/postemergence pigweed; format: in vivo, Amaranthus retroflexus
# In short: as §1
# sugar beet = assay: Test B pre/postemergence sugar beet; format: in vivo, Beta vulgaris
# In short: as §1
# rape = assay: Test B pre/postemergence rape; format: in vivo, Brassica napus
# In short: as §1
# surinam grass = assay: Test B pre/postemergence surinam grass; format: in vivo, Brachiaria decumbens
# In short: as §1
# morningglory = assay: Test B pre/postemergence morningglory; format: in vivo, Ipomoea hederacea
# In short: as §1
# wild oat = assay: Test B pre/postemergence wild oat; format: in vivo, Avena fatua
# In short: as §1
# crabgrass = assay: Test B pre/postemergence crabgrass; format: in vivo, Digitaria sanguinalis
# In short: as §1
# [1] = Postemergence, Rate 62 g/ha, scale 0 to 10, 0 is no effect, 10 is complete control
# [2] = Postemergence, Rate 250 g/ha, scale 0 to 10, 0 no effect, 10 complete control
# [3] = Preemergence, Rate 62 g/ha, scale 0 to 10, 0 is no effect, 10 is complete control
# [4] = Preemergence, Rate 125 g/ha, scale 0 to 10 (0 no effect, 10 complete control)
# [5] = Preemergence, Rate 250 g/ha, scale of 0 to 10 where 0 is no effect and 10 is complete control
# [6] = Preemergence, Rate 500 g/ha, scale 0 (no effect) to 10 (complete control)
# [7] = Rate 125 g/ha, Postemergence, scale 0 to 10, 0 no effect, 10 complete control
# [8] = Rate 500 g/ha, Postemergence, 0 to 10 scale (0 no effect, 10 complete control)
# [9] = Rate 125 g/ha, Postemergence section (flood test species), scale 0 to 10, 0 no effect, 10 complete control
# [10] = flood test, listed under Postemergence, Rate 250 g/ha, scale 0 to 10, 0 no effect, 10 complete control
smiles,measurement,setting,value
CCN(CC)C(=O)n1oc(=O)n(-c2cc(Cl)cc(Cl)c2)c1=O [Compound 11],Velvetleaf plant response rating,velvetleaf; [1],0
same,Velvetleaf plant response rating,velvetleaf; [2],0
same,"Plant response rating, Velvetleaf",velvetleaf; [3],0
same,"Plant response rating, Velvetleaf",velvetleaf; [4],0
same,"Plant response rating, Velvetleaf",velvetleaf; [5],0
same,Velvetleaf plant response rating,velvetleaf; [6],0
same,Velvetleaf plant response rating,velvetleaf; [7],0
same,Nutsedge plant response rating,purple nutsedge; [1],0
same,Nutsedge plant response rating,purple nutsedge; [2],0
same,"Plant response rating, Nutsedge",purple nutsedge; [3],0
same,"Plant response rating, Nutsedge",purple nutsedge; [4],0
same,"Plant response rating, Nutsedge",purple nutsedge; [5],0
same,Nutsedge plant response rating,purple nutsedge; [6],0
same,Nutsedge plant response rating,purple nutsedge; [7],0
same,Nutsedge plant response rating,purple nutsedge; [8],0
same,S. Flatsedge plant response rating,smallflower flatsedge; [1],0
same,S. Flatsedge plant response rating,smallflower flatsedge; [9],0
same,S. Flatsedge plant response rating,smallflower flatsedge; [10],0
same,Soybean plant response rating,soybean; [1],0
same,Soybean plant response rating,soybean; [2],0
same,"Plant response rating, Soybean",soybean; [3],0
same,"Plant response rating, Soybean",soybean; [4],0
same,"Plant response rating, Soybean",soybean; [5],0
same,Soybean plant response rating,soybean; [6],0
same,Soybean plant response rating,soybean; [7],0
same,Corn plant response rating,corn; [1],0
same,Corn plant response rating,corn; [2],0
same,"Plant response rating, Corn",corn; [3],0
same,"Plant response rating, Corn",corn; [4],0
same,"Plant response rating, Corn",corn; [5],0
same,Corn plant response rating,corn; [6],0
same,Corn plant response rating,corn; [7],0
same,Corn plant response rating,corn; [8],0
same,Giant foxtail plant response rating,giant foxtail; [1],0
same,Giant foxtail plant response rating,giant foxtail; [2],0
same,"Plant response rating, Giant foxtail",giant foxtail; [3],0
same,"Plant response rating, Giant foxtail",giant foxtail; [4],0
same,"Plant response rating, Giant foxtail",giant foxtail; [5],0
same,Giant foxtail plant response rating,giant foxtail; [6],3
same,Giant foxtail plant response rating,giant foxtail; [7],0
same,Giant foxtail plant response rating,giant foxtail; [8],0
same,Cocklebur plant response rating,cocklebur; [1],0
same,Cocklebur plant response rating,cocklebur; [2],0
same,"Plant response rating, Cocklebur",cocklebur; [3],0
same,"Plant response rating, Cocklebur",cocklebur; [4],0
same,"Plant response rating, Cocklebur",cocklebur; [5],0
same,Cocklebur plant response rating,cocklebur; [6],0
same,Cocklebur plant response rating,cocklebur; [7],0
same,Cocklebur plant response rating,cocklebur; [8],0
same,Barnyardgrass plant response rating,bamyardgrass; [1],0
same,Barnyardgrass plant response rating,bamyardgrass; [9],0
same,Barnyardgrass plant response rating,"bamyardgrass; Rate 500 g/ha, Postemergence section of Table B, 0 to 10 scale (0 no effect, 10 complete control)",0
same,Barnyardgrass plant response rating,bamyardgrass; [10],0
same,Blackgrass plant response rating,blackgrass; [1],0
same,Blackgrass plant response rating,blackgrass; [2],0
same,"Plant response rating, Blackgrass",blackgrass; [3],0
same,"Plant response rating, Blackgrass",blackgrass; [4],0
same,"Plant response rating, Blackgrass",blackgrass; [5],0
same,Blackgrass plant response rating,blackgrass; [6],0
same,Blackgrass plant response rating,blackgrass; [7],0
same,Blackgrass plant response rating,blackgrass; [8],0
same,Redroot pigweed plant response rating,pigweed; [1],0
same,Redroot pigweed plant response rating,pigweed; [2],0
same,"Plant response rating, Redroot pigweed",pigweed; [3],0
same,"Plant response rating, Redroot pigweed",pigweed; [4],0
same,"Plant response rating, Redroot pigweed",pigweed; [5],0
same,Redroot pigweed plant response rating,pigweed; [6],0
same,Redroot pigweed plant response rating,pigweed; [7],0
same,Redroot pigweed plant response rating,pigweed; [8],0
same,Sugarbeets plant response rating,sugar beet; [1],0
same,Sugarbeets plant response rating,sugar beet; [2],0
same,"Plant response rating, Sugarbeets",sugar beet; [3],0
same,"Plant response rating, Sugarbeets",sugar beet; [4],0
same,"Plant response rating, Sugarbeets",sugar beet; [5],0
same,Sugarbeets plant response rating,sugar beet; [6],0
same,Sugarbeets plant response rating,sugar beet; [7],0
same,Rape plant response rating,rape; [1],0
same,Rape plant response rating,rape; [2],0
same,"Plant response rating, Rape",rape; [3],0
same,"Plant response rating, Rape",rape; [4],0
same,"Plant response rating, Rape",rape; [5],0
same,Rape plant response rating,rape; [6],0
same,Rape plant response rating,rape; [7],0
same,Rape plant response rating,rape; [8],0
same,B. signalgrass plant response rating,surinam grass; [1],0
same,B. signalgrass plant response rating,surinam grass; [2],0
same,"Plant response rating, B. signalgrass",surinam grass; [3],0
same,"Plant response rating, B. signalgrass",surinam grass; [4],0
same,"Plant response rating, B. signalgrass",surinam grass; [5],0
same,B. signalgrass plant response rating,surinam grass; [6],0
same,B. signalgrass plant response rating,surinam grass; [7],0
same,B. signalgrass plant response rating,surinam grass; [8],0
same,Morningglory plant response rating,morningglory; [1],0
same,Morningglory plant response rating,morningglory; [2],0
same,"Plant response rating, Morningglory",morningglory; [3],0
same,"Plant response rating, Morningglory",morningglory; [4],0
same,"Plant response rating, Morningglory",morningglory; [5],0
same,Morningglory plant response rating,morningglory; [6],0
same,Morningglory plant response rating,morningglory; [7],0
same,Morningglory plant response rating,morningglory; [8],0
same,Wild oats plant response rating,wild oat; [1],0
same,Wild oats plant response rating,wild oat; [2],0
same,"Plant response rating, Wild oats",wild oat; [4],0
same,"Plant response rating, Wild oats",wild oat; [5],0
same,Wild oats plant response rating,wild oat; [6],0
same,Wild oats plant response rating,wild oat; [7],0
same,Crabgrass plant response rating,crabgrass; [1],0
same,Crabgrass plant response rating,crabgrass; [2],0
same,"Plant response rating, Crabgrass",crabgrass; [3],0
same,"Plant response rating, Crabgrass",crabgrass; [4],0
same,"Plant response rating, Crabgrass",crabgrass; [5],0
same,Crabgrass plant response rating,crabgrass; [6],8
same,Crabgrass plant response rating,crabgrass; [7],0
same,Crabgrass plant response rating,crabgrass; [8],0
